This is an account of results in article PMC8348983 (International Journal of Molecular Sciences, 2021).

Like-named read-outs stand apart in the source and are kept apart here. A value given as a limit tells only on which side of the number the result lay.

In one data set the target is human recombinant AChE (Homo sapiens, UniProt P22303). In words: biochemical. In kind it is biochemical.
In another data set the target is T1, human plasma BChE (Homo sapiens, UniProt P06276).
T1 construct: was used as a source of BChE and was prepared from heparinized human blood; from tissue; host or cells: human plasma from heparinized human blood
Description: biochemical. Format: biochemical.

The next data set in a line: Cytotoxicity, MTT assay. As to conditions: human, SH-SY5Y neuroblastoma cells, 24 h incubation. Format: cell-based. On the procedure:
The cytotoxicity profile was assessed for compound 6 using the human neuroblastoma SH-SY5Y cell line and MTT assay. At a concentration of 10 µM, compound 6 was completely devoid of cytotoxicity, with viability reaching 95.1 ± 2.6%.
The neuroblastoma cell line SH-SY5Y (Sigma-Aldrich, St. Louis, MO, USA) was used to evaluate cytotoxicity of the tested compounds. […]
The MTT (3-(4,5-dimethylthiazol-2-yl)-2,5-diphenyl-tetraziolium bromide (Sigma–Aldrich) reduction assay was used for measurement of the compounds’ cytotoxicity, according to Mosmann. MTT is a water-soluble tetrazolium salt that is converted to purple formazan by succinate dehydrogenase in mitochondria of viable cells. Cell viability was detected after 24-h incubation with the tested substances. For the assay, SH-SY5Y cells were seeded into 96-well plates in 100 µL volume and at a density of 20 × 10^3. Cells were allowed to attach overnight before the treatment. The stock solutions of tested compounds were prepared in dimethylsulfoxide (DMSO, Sigma-Aldrich), which were serially diluted in DMEM and added to the cells in a 96-well culture plate. […] The optical density of each well was measured using a Spark® multimode microplate reader (Tecan Group Ltd., Männedorf, Switzerland) at 570 nm. The cell viability was expressed as a percentage of the untreated control. […]

The target in the next data set is T2, MAO-A (Homo sapiens, UniProt P21397).
T2 construct: purchased Merck, Germany
T2 sequence (P21397 1-527): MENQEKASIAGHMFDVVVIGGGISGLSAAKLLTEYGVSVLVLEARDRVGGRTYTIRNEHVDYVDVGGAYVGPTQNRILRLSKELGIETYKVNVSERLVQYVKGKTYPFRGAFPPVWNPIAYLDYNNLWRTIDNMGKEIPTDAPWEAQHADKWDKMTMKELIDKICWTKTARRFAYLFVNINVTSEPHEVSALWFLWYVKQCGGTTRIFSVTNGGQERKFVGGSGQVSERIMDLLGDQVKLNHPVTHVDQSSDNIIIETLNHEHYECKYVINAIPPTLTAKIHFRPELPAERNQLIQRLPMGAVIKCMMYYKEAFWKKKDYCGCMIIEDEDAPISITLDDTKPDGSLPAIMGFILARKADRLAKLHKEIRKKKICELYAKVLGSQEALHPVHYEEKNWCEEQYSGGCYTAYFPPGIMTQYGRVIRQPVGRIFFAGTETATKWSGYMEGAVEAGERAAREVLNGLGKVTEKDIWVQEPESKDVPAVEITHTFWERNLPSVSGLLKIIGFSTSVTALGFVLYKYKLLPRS
Description: MAO-A inhibition assay. In kind it is biochemical. As for the experimental part:
Since monoamine oxidase (MAO; EC 1.4.3.4) inhibitors are considered as neuroprotective agents, compound 6 was screened at two concentrations (1 and 10 µM) for its inhibition potential against both isoforms of human MAOs. […]; MAO inhibition assay was performed as previously described. Supplementary Materials provides details of this assay. […]
The reaction mixture contains 2.5mg/mL MAO -A or 6.25mg/mLMAO-B enzyme (Merck, Germany) and inhibitor in final concentrations of […] in 50 mM potassiumphosphate buffer with 20% (v/v) glycerol (pH 7.5). […] The sample was then centrifuged (16.500 g) for10 min.The deamination product of kynuramine formed during the enzymatic reaction 4-hydroxyquinoline (4-HQ) was determined by UHPLC-MS on a Zorbax RRHD Eclipse plus C18 column (2.1 mm x 50 mm, […]) (Agilent Technologies, USA), by using a 6470 Series Triple Quadrupole mass spectrometer (Agilent Technologies, USA) as detector with electrospray ionisation – positive ion mode. […]
0.1% formic acid in water; (B) 0.1% formic acid in acetonitrile. IC 50of individual compounds were determined by nonlinear regression usingGraphPad Prism 8.0 (GraphPad Software, USA).

T1 sequence (P06276 29-602): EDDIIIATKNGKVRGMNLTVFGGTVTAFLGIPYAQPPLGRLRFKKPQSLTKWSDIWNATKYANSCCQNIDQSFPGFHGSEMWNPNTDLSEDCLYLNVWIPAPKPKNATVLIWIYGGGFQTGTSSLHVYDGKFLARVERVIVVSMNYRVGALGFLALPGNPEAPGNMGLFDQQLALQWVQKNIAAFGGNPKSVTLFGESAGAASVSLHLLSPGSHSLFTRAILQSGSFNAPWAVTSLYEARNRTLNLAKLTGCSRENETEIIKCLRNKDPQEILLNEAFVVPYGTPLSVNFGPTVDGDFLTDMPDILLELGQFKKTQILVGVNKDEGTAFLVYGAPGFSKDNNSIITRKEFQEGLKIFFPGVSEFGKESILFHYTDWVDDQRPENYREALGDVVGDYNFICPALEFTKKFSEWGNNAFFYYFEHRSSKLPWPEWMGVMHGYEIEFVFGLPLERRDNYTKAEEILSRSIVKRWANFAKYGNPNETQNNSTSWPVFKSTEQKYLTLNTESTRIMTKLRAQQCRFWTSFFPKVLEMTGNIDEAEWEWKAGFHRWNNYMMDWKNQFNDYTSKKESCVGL
Sequence of human recombinant AChE (P22303 32-614): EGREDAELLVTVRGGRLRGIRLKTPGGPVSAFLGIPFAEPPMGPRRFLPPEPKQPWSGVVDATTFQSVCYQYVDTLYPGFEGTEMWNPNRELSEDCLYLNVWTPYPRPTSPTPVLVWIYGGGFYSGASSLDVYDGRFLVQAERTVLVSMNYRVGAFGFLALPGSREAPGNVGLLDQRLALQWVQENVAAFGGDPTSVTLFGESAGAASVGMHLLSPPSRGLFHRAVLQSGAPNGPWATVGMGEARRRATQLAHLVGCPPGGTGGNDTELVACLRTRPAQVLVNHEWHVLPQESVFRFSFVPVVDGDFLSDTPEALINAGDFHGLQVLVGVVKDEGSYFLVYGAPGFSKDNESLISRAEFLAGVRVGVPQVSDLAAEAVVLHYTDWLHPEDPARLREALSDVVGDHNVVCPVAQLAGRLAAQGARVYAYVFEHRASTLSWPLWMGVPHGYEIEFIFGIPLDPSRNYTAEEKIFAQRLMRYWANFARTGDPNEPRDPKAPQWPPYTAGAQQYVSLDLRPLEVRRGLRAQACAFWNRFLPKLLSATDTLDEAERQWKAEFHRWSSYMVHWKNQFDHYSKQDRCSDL

As to `C=CCOc1ccc(CCN(CC=C)Cc2ccc(OC)c(OCc3ccccc3)c2)cc1` [Compound 6, N-allyl-N-(3-benzyloxy-4-methoxybenzyl)-2-(4-allyloxyphenyl)ethan-1-amine], the IC50 is more than 100000 nM on human recombinant AChE (mean ± SEM of three independent measurements, each in triplicate, read-out: IC50, hAChE ± SEM); 70 ± 10 nM on human plasma BChE (mean ± SEM of three independent measurements, each in triplicate, read-out: IC50, hBuChE ± SEM); 72 nM at human plasma BChE (read-out: IC50, hBuChE); more than 10000 nM against MAO-A. The inhibition at 100 µM at human recombinant AChE (tested at 100 µM compound concentration, read-out: %Inhibition hAChE ± SEM) came to 10.1 ± 0.6%; at human plasma BChE (tested at 100 µM compound concentration, read-out: % Inhibition hBuChE ± SEM) it was 98.6 ± 0.9%. In addition, in “Cytotoxicity, MTT assay”, the viability at 24 h, 10 µM turned out to be 95.1 ± 2.6%. The “residual activity of MAO-A” value on MAO-A (1 and 10 µM) is “higher than 68%”.
